# Where two headings read alike, the source gives them in different places.
# Tests used:
# [1] = target: T1, glucosylceramide synthase (GCS) (Homo sapiens, UniProt Q16739); assay: GCS enzyme inhibition assay (A549 cell lysate, NBD C6-ceramide, HPLC fluorescence); assay type: biochemical; conditions: inhibitory activity against GCS, 37° C., 90 minutes
# T1 construct: The obtained supernatant was used; host or cells: A549 cells (lysate supernatant after sonication)
# T1 sequence (Q16739 1-394): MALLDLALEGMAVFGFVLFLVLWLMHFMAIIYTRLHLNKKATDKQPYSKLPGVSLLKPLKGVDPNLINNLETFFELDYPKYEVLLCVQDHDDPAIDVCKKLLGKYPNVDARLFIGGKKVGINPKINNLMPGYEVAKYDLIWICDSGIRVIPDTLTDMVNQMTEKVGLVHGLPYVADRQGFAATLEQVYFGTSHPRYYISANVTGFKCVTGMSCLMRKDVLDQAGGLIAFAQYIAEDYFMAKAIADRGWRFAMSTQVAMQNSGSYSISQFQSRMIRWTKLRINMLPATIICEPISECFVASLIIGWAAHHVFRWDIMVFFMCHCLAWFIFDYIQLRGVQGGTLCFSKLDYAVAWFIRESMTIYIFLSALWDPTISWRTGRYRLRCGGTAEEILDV
# Summary of the method: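 Percent GCS activity was derived from the GlcCer share of Cer plus GlcCer areas, scaled from ibiglustat (0%) to DMSO (100%). Enzyme came from sonicated A549 lysate in 50 mM HEPES pH 7.3; 90 min incubation at 37° C, chloroform/methanol stop and extraction.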
# [2] = system: GM1 production in Jurkat cells; assay: cells; assay type: cell-based
smiles,measurement,setting,value
"CC1(C)COc2cc(-c3ccc4cc[nH]c4c3)ccc2C1NC(=O)O[C@@H]1CN2CCC1CC2 (stereo partly drawn) [Example 197, (S)-quinuclidin-3-yl (7-(1H-indol-6-yl)-3,3-dimethylchroman-4-yl)carbamate]",IC50,[1],0.9 nM
same,IC50,"[2]; Homo sapiens, Jurkat, 72 h",1.99 nM
"O=C(NC1CCOc2cc(-c3ccc(F)cc3)ccc21)O[C@@H]1CN2CCC1CC2 (stereo partly drawn) [Example 13, (S)-quinuclidin-3-yl (7-(4-fluorophenyl)chroman-4-yl)carbamate]",IC50,[1],8.54 nM
same,IC50,"[2]; Homo sapiens, Jurkat, 72 h",42.8 nM
"O=C(NC1CCOc2ccc(-c3ccccc3C(F)(F)F)cc21)O[C@@H]1CN2CCC1CC2 (stereo partly drawn) [Example 93, (S)-quinuclidin-3-yl (6-(2-(trifluoromethyl)phenyl)chroman-4-yl)carbamate]",IC50,[1],4.25 nM
same,IC50,"[2]; Homo sapiens, Jurkat, 72 h",79.8 nM
"Cc1ccc(-c2ccc3c(c2)C(NC(=O)O[C@@H]2CN4CCC2CC4)CCO3)cc1 (stereo partly drawn) [Example 99, (S)-quinuclidin-3-yl (6-(p-tolyl)chroman-4-yl)carbamate]",IC50,[1],19.2 nM
same,IC50,"[2]; Homo sapiens, Jurkat, 72 h",322 nM
"CC1(C)COc2cc(-c3cccc(F)c3)c(F)cc2C1NC(=O)O[C@@H]1CN2CCC1CC2 (stereo partly drawn) [Example 330, (S)-quinuclidin-3-yl (6-fluoro-7-(3-fluorophenyl)-3,3-dimethylchroman-4-yl)carbamate]",IC50,[1],0.28 nM
same,IC50,"[2]; Homo sapiens, Jurkat, 72 h",1.8 nM
"CN1CCC(NC(=O)O[C@@H]2CN3CCC2CC3)c2ccc(-c3cccc(C(C)(C)C)c3)cc21 (stereo partly drawn) [Example 314, (S)-quinuclidin-3-yl (7-(3-(tert-butyl)phenyl)-1-methyl-1,2,3,4-tetrahydroquinolin-4-yl)carbamate]",IC50,[1],6.47 nM
same,IC50,"[2]; Homo sapiens, Jurkat, 72 h",56.3 nM
"O=C(NC1CCSc2cc(-c3cccc(OC(F)(F)F)c3)ccc21)O[C@@H]1CN2CCC1CC2 (stereo partly drawn) [Example 320, (S)-quinuclidin-3-yl (7-(3-(trifluoromethoxy)phenyl)thiochroman-4-yl)carbamate]",IC50,[1],1.5 nM
same,IC50,"[2]; Homo sapiens, Jurkat, 72 h",13.8 nM
"COc1ccc(-c2cc3c(cc2OC)C(NC(=O)O[C@@H]2CN4CCC2CC4)C(C)(C)CO3)cc1 (stereo partly drawn) [Example 355, (S)-quinuclidin-3-yl (6-methoxy-7-(4-methoxyphenyl)-3,3-dimethylchroman-4-yl)carbamate]",IC50,[1],0.58 nM
same,IC50,"[2]; Homo sapiens, Jurkat, 72 h",5.8 nM
"CCc1ccc(/C=C/c2ccc3c(c2)OCC(C)(C)C3NC(=O)O[C@@H]2CN3CCC2CC3)cc1 (stereo partly drawn) [Example 287, (S)-quinuclidin-3-yl (7-((E)-4-ethylstyryl)-3,3-dimethylchroman-4-yl)carbamate]",IC50,[1],0.79 nM
same,IC50,"[2]; Homo sapiens, Jurkat, 72 h",1 nM
"N#Cc1ccccc1-c1ccc2c(c1)OCCC2NC(=O)O[C@@H]1CN2CCC1CC2 (stereo partly drawn) [Example 40, (S)-quinuclidin-3-yl (7-(2-cyanophenyl)chroman-4-yl)carbamate]",IC50,[1],3.78 nM
same,IC50,"[2]; Homo sapiens, Jurkat, 72 h",19.7 nM
"O=C(NC1CCOc2cc(-c3ccc(Cl)c(Cl)c3)ccc21)O[C@@H]1CN2CCC1CC2 (stereo partly drawn) [Example 28, (S)-quinuclidin-3-yl (7-(3,4-dichlorophenyl)chroman-4-yl)carbamate]",IC50,[1],5.19 nM
same,IC50,"[2]; Homo sapiens, Jurkat, 72 h",24.1 nM
"CC1(C)COc2cc(-c3ccc(=O)n(Cc4ccccc4)c3)ccc2C1NC(=O)O[C@@H]1CN2CCC1CC2 (stereo partly drawn) [Example 292, (S)-quinuclidin-3-yl (7-(1-benzyl-6-oxo-1,6-dihydropyridin-3-yl)-3,3-dimethylchroman-4-yl)carbamate]",IC50,[1],1.38 nM
same,IC50,"[2]; Homo sapiens, Jurkat, 72 h",30.2 nM
"Cc1ccc(-c2ccc3c(c2)OCCC3NC(=O)O[C@@H]2CN3CCC2CC3)cc1C#N (stereo partly drawn) [Example 78, (S)-quinuclidin-3-yl (7-(3-cyano-4-methylphenyl)chroman-4-yl)carbamate]",IC50,[1],1.26 nM
same,IC50,"[2]; Homo sapiens, Jurkat, 72 h",27.3 nM
"CC1(C)COc2cc(-c3ccc(F)nc3F)ccc2C1NC(=O)O[C@@H]1CN2CCC1CC2 (stereo partly drawn) [Example 278, (S)-quinuclidin-3-yl (7-(2,6-difluoropyridin-3-yl)-3,3-dimethylchroman-4-yl)carbamate]",IC50,[1],2.19 nM
same,IC50,"[2]; Homo sapiens, Jurkat, 72 h",12.4 nM
"Cc1ccc(Cl)c(-c2ccc3c(c2)OCC(C)(C)C3NC(=O)O[C@@H]2CN3CCC2CC3)c1 (stereo partly drawn) [Example 224, (S)-quinuclidin-3-yl (7-(2-chloro-5-methylphenyl)-3,3-dimethylchroman-4-yl)carbamate]",IC50,[1],0.62 nM
same,IC50,"[2]; Homo sapiens, Jurkat, 72 h",0.6 nM
"CC1(C)COc2cc(-c3cccc4[nH]ncc34)ccc2C1NC(=O)O[C@@H]1CN2CCC1CC2 (stereo partly drawn) [Example 212, (S)-quinuclidin-3-yl (7-(1H-indazol-4-yl)-3,3-dimethylchroman-4-yl)carbamate]",IC50,[1],0.87 nM
same,IC50,"[2]; Homo sapiens, Jurkat, 72 h",2.45 nM
"Cc1ccc(-c2ccc3c(c2)OCC(C)(C)C3NC(=O)O[C@@H]2CN3CCC2CC3)c(Cl)c1 (stereo partly drawn) [Example 223, (S)-quinuclidin-3-yl (7-(2-chloro-4-methylphenyl)-3,3-dimethylchroman-4-yl)carbamate]",IC50,[1],1.58 nM
same,IC50,"[2]; Homo sapiens, Jurkat, 72 h",1.6 nM
"CC1(C)COc2cc(-c3cc(F)ccc3Cl)ccc2C1NC(=O)O[C@@H]1CN2CCC1CC2 (stereo partly drawn) [Example 232, (S)-quinuclidin-3-yl (7-(2-chloro-5-fluorophenyl)-3,3-dimethylchroman-4-yl)carbamate]",IC50,[1],0.41 nM
same,IC50,"[2]; Homo sapiens, Jurkat, 72 h",0.3 nM
"CC1(C)COc2cc(-c3ccc(C4CC4)nc3)ccc2C1NC(=O)O[C@@H]1CN2CCC1CC2 (stereo partly drawn) [Example 250, (S)-quinuclidin-3-yl (7-(6-cyclopropylpyridin-3-yl)-3,3-dimethylchroman-4-yl)carbamate]",IC50,[1],0.35 nM
same,IC50,"[2]; Homo sapiens, Jurkat, 72 h",5.4 nM
"COc1cccc(Cl)c1-c1ccc2c(c1)OCC(C)(C)C2NC(=O)O[C@@H]1CN2CCC1CC2 (stereo partly drawn) [Example 121, (S)-quinuclidin-3-yl (7-(2-chloro-6-methoxyphenyl)-3,3-dimethylchroman-4-yl)carbamate]",IC50,[1],2.67 nM
same,IC50,"[2]; Homo sapiens, Jurkat, 72 h",15.9 nM
"O=C(NC1CCOc2cc(-c3ccccc3OC(F)(F)F)ccc21)O[C@@H]1CN2CCC1CC2 (stereo partly drawn) [Example 12, (S)-quinuclidin-3-yl (7-(2-(trifluoromethoxy)phenyl)chroman-4-yl)carbamate]",IC50,[1],4.28 nM
same,IC50,"[2]; Homo sapiens, Jurkat, 72 h",3.28 nM
"COc1ccc(-c2ccc3c(c2)OCC(C)(C)C3NC(=O)O[C@@H]2CN3CCC2CC3)cc1C(F)(F)F (stereo partly drawn) [Example 210, (S)-quinuclidin-3-yl (7-(4-methoxy-3-(trifluoromethyl)phenyl)-3,3-dimethylchroman-4-yl)carbamate]",IC50,[1],1.57 nM
same,IC50,[2],18 nM
"CC1(C)CC(NC(=O)O[C@@H]2CN3CCC2CC3)c2ccc(-c3cccc(C(F)(F)F)c3)cc2O1 (stereo partly drawn) [Example 295, (S)-quinuclidin-3-yl (2,2-dimethyl-7-(3-(trifluoromethyl)phenyl)chroman-4-yl)carbamate]",IC50,[1],18.1 nM
same,IC50,"[2]; Homo sapiens, Jurkat, 72 h",11.2 nM
"O=C(NC1CCOc2cc(-c3cc(F)c(F)cc3F)ccc21)O[C@@H]1CN2CCC1CC2 (stereo partly drawn) [Example 31, (S)-quinuclidin-3-yl (7-(2,4,5-trifluorophenyl)chroman-4-yl)carbamate]",IC50,[1],3.26 nM
same,IC50,"[2]; Homo sapiens, Jurkat, 72 h",27.6 nM
"CC1(NC(=O)O[C@@H]2CN3CCC2CC3)CCOc2cc(-c3cccc(Cl)c3)ccc21 (stereo partly drawn) [Example 297, (S)-quinuclidin-3-yl (7-(3-chlorophenyl)-4-methylchroman-4-yl)carbamate]",IC50,[1],0.8 nM
same,IC50,"[2]; Homo sapiens, Jurkat, 72 h",5.6 nM
"CCOc1cccc(-c2ccc3c(c2)OCCC3NC(=O)O[C@@H]2CN3CCC2CC3)c1 (stereo partly drawn) [Example 21, (S)-quinuclidin-3-yl (7-(3-ethoxyphenyl)chroman-4-yl)carbamate]",IC50,[1],0.67 nM
same,IC50,"[2]; Homo sapiens, Jurkat, 72 h",4.56 nM
"COc1ccc(-c2ccc3c(c2)OCC(C)(C)C3NC(=O)O[C@@H]2CN3CCC2CC3)c(C)c1 (stereo partly drawn) [Example 116, (S)-quinuclidin-3-yl (7-(4-methoxy-2-methylphenyl)-3,3-dimethylchroman-4-yl)carbamate]",IC50,[1],1.39 nM
same,IC50,"[2]; Homo sapiens, Jurkat, 72 h",1.16 nM
"CC(C)c1cccc(-c2ccc3c(c2)OCC(C)(C)C3NC(=O)O[C@@H]2CN3CCC2CC3)c1 (stereo partly drawn) [Example 151, (S)-quinuclidin-3-yl (7-(3-isopropylphenyl)-3,3-dimethylchroman-4-yl)carbamate]",IC50,[1],0.53 nM
same,IC50,"[2]; Homo sapiens, Jurkat, 72 h",0.31 nM
"CC1(C)COc2cc(-c3ccsc3)c(F)cc2C1NC(=O)O[C@@H]1CN2CCC1CC2 (stereo partly drawn) [Example 338, (S)-quinuclidin-3-yl (6-fluoro-3,3-dimethyl-7-(thiophen-3-yl)chroman-4-yl)carbamate]",IC50,[1],0.19 nM
same,IC50,"[2]; Homo sapiens, Jurkat, 72 h",3.3 nM
"CC1(C)COc2cc(-c3ccc(C(F)(F)F)cc3Cl)ccc2C1NC(=O)O[C@@H]1CN2CCC1CC2 (stereo partly drawn) [Example 137, (S)-quinuclidin-3-yl (7-(2-chloro-4-(trifluoromethyl)phenyl)-3,3-dimethylchroman-4-yl)carbamate]",IC50,[1],0.62 nM
same,IC50,"[2]; Homo sapiens, Jurkat, 72 h",0.11 nM
"CC1(C)COc2cc(/C=C/c3ccc(-c4ccccc4)cc3)ccc2C1NC(=O)O[C@@H]1CN2CCC1CC2 (stereo partly drawn) [Example 282, (S)-quinuclidin-3-yl (7-((E)-2-([1,1′-diphenyl]-4-yl)vinyl)-3,3-dimethylchroman-4-yl)carbamate]",IC50,[1],1.64 nM
same,IC50,"[2]; Homo sapiens, Jurkat, 72 h",2 nM
"COCCOc1cccc(-c2ccc3c(c2)OCC(C)(C)C3NC(=O)O[C@@H]2CN3CCC2CC3)c1 (stereo partly drawn) [Example 110, (S)-quinuclidin-3-yl (7-(3-(2-methoxyethoxy)phenyl)-3,3-dimethylchroman-4-yl)carbamate]",IC50,[1],1.3 nM
same,IC50,"[2]; Homo sapiens, Jurkat, 72 h",0.12 nM
"COc1ccc(-c2cc3c(cc2F)C(NC(=O)O[C@@H]2CN4CCC2CC4)C(C)(C)CO3)cc1 (stereo partly drawn) [Example 336, (S)-quinuclidin-3-yl (6-fluoro-7-(4-methoxyphenyl)-3,3-dimethylchroman-4-yl)carbamate]",IC50,[1],0.27 nM
same,IC50,"[2]; Homo sapiens, Jurkat, 72 h",3.5 nM

# Source: patent publication US12673944B2, “Compounds having inhibitory activity against glucosylceramide synthase or pharmaceutically acceptable salt thereof, processes for preparing the same, and pharmaceutical compositions comprising the same” (YUHAN CORPORATION, priority 2019, dated 2026)
